# T1: A. aeolicus RNR (AaR1 + AaR2) (Aquifex aeolicus, UniProt O66503)
# T1 construct: gene nrdA; full length AaR1 and AaR2 (construct lacking the 346-residue intein, equal to mature R2; natural precursor contains the intein), N-terminal His tags with thrombin site, E. coli expression; R2 42 kDa; with Ribonucleoside-diphosphate reductase subunit beta
# T1 sequence (O66503 1-801): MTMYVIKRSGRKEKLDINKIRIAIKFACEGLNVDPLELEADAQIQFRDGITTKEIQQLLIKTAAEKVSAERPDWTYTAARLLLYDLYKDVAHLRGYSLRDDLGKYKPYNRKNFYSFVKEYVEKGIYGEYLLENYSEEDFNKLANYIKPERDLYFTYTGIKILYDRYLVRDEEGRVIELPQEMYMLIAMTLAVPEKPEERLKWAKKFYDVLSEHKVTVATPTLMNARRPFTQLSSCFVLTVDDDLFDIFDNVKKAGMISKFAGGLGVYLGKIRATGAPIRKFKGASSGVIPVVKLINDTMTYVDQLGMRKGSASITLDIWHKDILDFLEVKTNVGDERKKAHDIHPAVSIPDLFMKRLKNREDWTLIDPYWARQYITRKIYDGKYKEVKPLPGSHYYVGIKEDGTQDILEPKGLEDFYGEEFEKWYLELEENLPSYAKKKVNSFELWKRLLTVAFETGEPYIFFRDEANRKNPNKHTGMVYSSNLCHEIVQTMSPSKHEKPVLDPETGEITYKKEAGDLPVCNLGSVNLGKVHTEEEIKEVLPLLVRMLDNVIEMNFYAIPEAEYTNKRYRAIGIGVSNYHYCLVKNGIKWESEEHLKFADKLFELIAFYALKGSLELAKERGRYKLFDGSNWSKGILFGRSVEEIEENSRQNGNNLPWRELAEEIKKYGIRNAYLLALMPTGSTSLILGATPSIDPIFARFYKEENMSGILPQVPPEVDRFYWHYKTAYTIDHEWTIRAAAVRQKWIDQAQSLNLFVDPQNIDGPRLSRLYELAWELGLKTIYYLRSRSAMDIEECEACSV
# T1 sequence (O67475 1-229 partner): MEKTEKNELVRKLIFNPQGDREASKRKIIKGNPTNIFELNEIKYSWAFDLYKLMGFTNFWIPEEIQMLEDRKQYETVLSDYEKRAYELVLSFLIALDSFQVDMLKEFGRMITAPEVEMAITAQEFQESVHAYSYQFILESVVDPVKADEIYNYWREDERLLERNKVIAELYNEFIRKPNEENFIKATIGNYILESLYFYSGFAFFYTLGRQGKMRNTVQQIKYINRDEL
# T1 sequence (O67475 576-696 partner): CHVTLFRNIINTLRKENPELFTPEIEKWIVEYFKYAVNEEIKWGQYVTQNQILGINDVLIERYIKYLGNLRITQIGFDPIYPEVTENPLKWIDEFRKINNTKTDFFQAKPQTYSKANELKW
# T2: AaR1 (Aquifex aeolicus, UniProt O66503)
# T2 construct: gene nrdA; full length, N-terminal His tag and thrombin site (pET-28a), expressed in E. coli BL21(DE3); 93 kDa; monomer-dimer equilibrium
# T2 sequence (O66503 1-801): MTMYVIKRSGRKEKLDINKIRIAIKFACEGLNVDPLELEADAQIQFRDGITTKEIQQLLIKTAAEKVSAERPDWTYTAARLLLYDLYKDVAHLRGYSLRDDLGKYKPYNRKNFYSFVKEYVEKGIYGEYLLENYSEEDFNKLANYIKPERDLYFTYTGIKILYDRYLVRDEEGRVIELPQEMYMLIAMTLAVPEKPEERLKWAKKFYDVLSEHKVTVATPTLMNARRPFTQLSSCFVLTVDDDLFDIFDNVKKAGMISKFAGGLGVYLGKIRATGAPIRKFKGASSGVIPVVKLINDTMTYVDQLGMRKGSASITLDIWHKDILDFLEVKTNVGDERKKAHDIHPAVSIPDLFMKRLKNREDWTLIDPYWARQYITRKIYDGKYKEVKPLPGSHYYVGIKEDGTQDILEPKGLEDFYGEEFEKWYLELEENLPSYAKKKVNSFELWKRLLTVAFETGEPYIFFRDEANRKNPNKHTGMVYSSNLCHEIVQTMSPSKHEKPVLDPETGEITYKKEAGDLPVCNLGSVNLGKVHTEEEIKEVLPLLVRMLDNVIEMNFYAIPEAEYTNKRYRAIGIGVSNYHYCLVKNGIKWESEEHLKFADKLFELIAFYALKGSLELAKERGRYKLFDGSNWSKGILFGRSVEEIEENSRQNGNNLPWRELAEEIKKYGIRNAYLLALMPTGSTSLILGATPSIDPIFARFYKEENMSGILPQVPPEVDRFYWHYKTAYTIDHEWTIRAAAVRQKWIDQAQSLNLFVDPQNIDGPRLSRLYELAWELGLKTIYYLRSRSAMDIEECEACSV
# B1: Aquifex aeolicus ribonucleotide reductase R2 protein (β-subunit), from a construct lacking the intein (enzyme, UniProt O67475 1-229, looked up)
# chain: MEKTEKNELVRKLIFNPQGDREASKRKIIKGNPTNIFELNEIKYSWAFDLYKLMGFTNFWIPEEIQMLEDRKQYETVLSDYEKRAYELVLSFLIALDSFQVDMLKEFGRMITAPEVEMAITAQEFQESVHAYSYQFILESVVDPVKADEIYNYWREDERLLERNKVIAELYNEFIRKPNEENFIKATIGNYILESLYFYSGFAFFYTLGRQGKMRNTVQQIKYINRDELCHVTLFRNIINTLRKENPELFTPEIEKWIVEYFKYAVNEEIKWGQYVTQNQILGINDVLIERYIKYLGNLRITQIGFDPIYPEVTENPLKWIDEFRKINNTKTDFFQAKPQTYSKANELKW
# notes: Class I ribonucleotide reductase small (β) subunit R2, Aquifex aeolicus; Leu229 is joined to Cys230; The natural gene product carries the intein between Leu229 and Cys230; Theoretical mass of the polypeptide 42 kDa. numbers count on: the mature protein (intein removed); Homodimer in the crystal, GEMMA and SEC; No removal of the His tag is described; also called AaR2; mature AaR2; source: E. coli …
# B2: Aquifex aeolicus ribonucleotide reductase R1 protein (α-subunit) (enzyme, UniProt O66503 1-801, looked up)
# chain: MTMYVIKRSGRKEKLDINKIRIAIKFACEGLNVDPLELEADAQIQFRDGITTKEIQQLLIKTAAEKVSAERPDWTYTAARLLLYDLYKDVAHLRGYSLRDDLGKYKPYNRKNFYSFVKEYVEKGIYGEYLLENYSEEDFNKLANYIKPERDLYFTYTGIKILYDRYLVRDEEGRVIELPQEMYMLIAMTLAVPEKPEERLKWAKKFYDVLSEHKVTVATPTLMNARRPFTQLSSCFVLTVDDDLFDIFDNVKKAGMISKFAGGLGVYLGKIRATGAPIRKFKGASSGVIPVVKLINDTMTYVDQLGMRKGSASITLDIWHKDILDFLEVKTNVGDERKKAHDIHPAVSIPDLFMKRLKNREDWTLIDPYWARQYITRKIYDGKYKEVKPLPGSHYYVGIKEDGTQDILEPKGLEDFYGEEFEKWYLELEENLPSYAKKKVNSFELWKRLLTVAFETGEPYIFFRDEANRKNPNKHTGMVYSSNLCHEIVQTMSPSKHEKPVLDPETGEITYKKEAGDLPVCNLGSVNLGKVHTEEEIKEVLPLLVRMLDNVIEMNFYAIPEAEYTNKRYRAIGIGVSNYHYCLVKNGIKWESEEHLKFADKLFELIAFYALKGSLELAKERGRYKLFDGSNWSKGILFGRSVEEIEENSRQNGNNLPWRELAEEIKKYGIRNAYLLALMPTGSTSLILGATPSIDPIFARFYKEENMSGILPQVPPEVDRFYWHYKTAYTIDHEWTIRAAAVRQKWIDQAQSLNLFVDPQNIDGPRLSRLYELAWELGLKTIYYLRSRSAMDIEECEACSV
# notes: Class I ribonucleotide reductase large (α) subunit R1, NrdAh subclass, Aquifex aeolicus; full length, synthetic gene (Genscript) in pET-28a(+) with N-terminal His tag and thrombin cleavage site; theoretical mass of the polypeptide 93 kDa; Homodimer in the crystal; monomer-dimer equilibrium in GEMMA and SEC; No removal of the His tag by thrombin is described; also called AaR1; NrdAh; source: E. …
# Assays:
# [1] = target: T1, A. aeolicus RNR (AaR1 + AaR2); assay: HPLC NDP reduction assay; assay type: biochemical; details: pH 6.8, 79 °C
# AaR1 = target: T2, AaR1; assay: GEMMA, effector-induced R1 dimerization; assay type: binding; details: allosteric; 100 µM dATP, equimolar Mg acetate, 300 mM ammonium acetate pH 7.5, preincubated at 78 °C
# [2] = target: the molecule itself; assay: GEMMA (gas-phase electrophoretic mobility macromolecule analysis); individual R1 or R2 at 0.25 μM, 300 mM ammonium acetate pH 7.5, 0.005% Tween 20, without or with 300 μM ATP or 100 μM dATP (equimolar magnesium acetate); preincubated 2 min at 78 °C, analysed at room temperature
# [3] = target: B2; assay: SEC; equimolar AaR1 and AaR2, 20 μM, with ATP and MgCl2; Superdex 200 PC 3.2/30, 20 mM Hepes pH 7.4, 75 mM NaCl, 0.2 mM TCEP; preincubated 5 min at 70 °C, run at 7 °C; top peak fraction analysed by SDS-PAGE; details: both partners purified
molecule,measurement,setting,value
Nc1ncnc2c1ncn2[C@@H]1O[C@H](COP(=O)(O)OP(=O)(O)OP(=O)(O)O)[C@@H](O)[C@H]1O [ATP],HPLC NDP reduction assay,"[1]; allosteric activator, 2 mM ATP, four substrates 0.5 mM each, 10 mM DTT, 10 mM Mg acetate, titration with CDP in Figure S3",ATP induces the reduction of CDP and UDP
Nc1nc2c(ncn2[C@@H]2O[C@H](COP(=O)(O)OP(=O)(O)O)[C@@H](O)[C@H]2O)c(=O)[nH]1 [GDP],HPLC NDP reduction assay,"[1]; 0.5 mM GDP with CDP, ADP and UDP, dTTP effector 2 mM, 10 mM DTT","specific activities for the conversion of CDP, UDP, GDP, and ADP to their corresponding dNDPs"
Nc1ncnc2c1ncn2[C@H]1C[C@H](O)[C@@H](COP(=O)(O)OP(=O)(O)OP(=O)(O)O)O1 [dATP],"GEMMA, effector-induced R1 dimerization",AaR1,"Allosteric effectors stimulated R1 dimerization, although complete conversion to dimers was not obtained"
Nc1nc2c(ncn2[C@H]2C[C@H](O)[C@@H](COP(=O)(O)OP(=O)(O)OP(=O)(O)O)O2)c(=O)[nH]1 [dGTP],HPLC NDP reduction assay,"[1]; allosteric effector, s-site, induces ADP reduction, 2 mM dGTP, four substrates 0.5 mM each","dTTP and dGTP induce the reduction of GDP and ADP, respectively"
B1,stoichiometry N,[2],2
same,stoichiometry N,[3],1 AaR1:AaR2
B2,stoichiometry N,[2],2

# Source: publication PMC8772380, “Structural and Biochemical Investigation of Class I Ribonucleotide Reductase from the Hyperthermophile Aquifex aeolicus” (Biochemistry, 2021)
